Legend:
[1] = biological target: D(3) dopamine receptor (Homo sapiens, UniProt P35462)
[2] = biological target: Prostaglandin G/H synthase 1 (Homo sapiens, UniProt P23219); format: functional
[3] = biological target: T1, Muscarinic acetylcholine receptor M1 (Homo sapiens, UniProt P11229); format: functional, cell-based
T1 sequence (P11229 whole entry): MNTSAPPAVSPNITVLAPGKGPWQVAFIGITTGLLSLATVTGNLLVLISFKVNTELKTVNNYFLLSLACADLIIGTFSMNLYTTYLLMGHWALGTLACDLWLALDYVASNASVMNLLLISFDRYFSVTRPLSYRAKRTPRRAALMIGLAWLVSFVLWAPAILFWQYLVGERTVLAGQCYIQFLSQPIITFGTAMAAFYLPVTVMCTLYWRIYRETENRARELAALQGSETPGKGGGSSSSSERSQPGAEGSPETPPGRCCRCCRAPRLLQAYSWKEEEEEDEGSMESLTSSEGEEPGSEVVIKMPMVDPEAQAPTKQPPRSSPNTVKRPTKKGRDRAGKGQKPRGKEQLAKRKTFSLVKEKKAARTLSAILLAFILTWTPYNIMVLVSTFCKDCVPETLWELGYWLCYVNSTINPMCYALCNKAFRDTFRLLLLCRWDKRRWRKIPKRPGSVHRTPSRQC

[4] = biological target: T2, Androgen receptor (Homo sapiens, UniProt P10275)
T2 sequence (P10275 whole entry): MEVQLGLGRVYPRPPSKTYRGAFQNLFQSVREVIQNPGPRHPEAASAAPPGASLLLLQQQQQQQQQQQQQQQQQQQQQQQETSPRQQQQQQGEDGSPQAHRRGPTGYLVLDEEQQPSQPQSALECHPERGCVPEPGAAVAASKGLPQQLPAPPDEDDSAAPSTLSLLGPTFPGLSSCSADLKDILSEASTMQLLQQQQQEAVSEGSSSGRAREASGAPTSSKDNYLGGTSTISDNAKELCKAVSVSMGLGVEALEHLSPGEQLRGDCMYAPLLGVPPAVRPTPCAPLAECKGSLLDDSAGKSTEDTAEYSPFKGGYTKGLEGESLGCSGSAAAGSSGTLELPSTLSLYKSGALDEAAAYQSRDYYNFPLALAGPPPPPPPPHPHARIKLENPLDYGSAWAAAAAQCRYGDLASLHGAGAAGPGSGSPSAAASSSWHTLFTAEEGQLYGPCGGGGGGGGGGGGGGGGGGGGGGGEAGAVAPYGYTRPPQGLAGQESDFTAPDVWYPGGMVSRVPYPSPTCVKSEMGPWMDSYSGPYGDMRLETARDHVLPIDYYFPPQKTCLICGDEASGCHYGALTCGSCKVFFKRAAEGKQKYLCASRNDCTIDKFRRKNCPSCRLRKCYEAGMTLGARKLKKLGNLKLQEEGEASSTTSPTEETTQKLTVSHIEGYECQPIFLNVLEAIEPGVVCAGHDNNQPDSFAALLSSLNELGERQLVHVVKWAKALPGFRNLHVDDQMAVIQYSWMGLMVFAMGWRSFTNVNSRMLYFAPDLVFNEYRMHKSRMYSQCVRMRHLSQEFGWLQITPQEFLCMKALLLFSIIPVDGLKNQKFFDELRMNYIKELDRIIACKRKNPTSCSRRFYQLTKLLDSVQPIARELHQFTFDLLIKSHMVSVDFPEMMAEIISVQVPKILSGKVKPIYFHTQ

[5] = biological target: T3, Prostaglandin G/H synthase 1 (Rattus norvegicus, UniProt Q63921); format: functional
T3 sequence (Q63921 whole entry): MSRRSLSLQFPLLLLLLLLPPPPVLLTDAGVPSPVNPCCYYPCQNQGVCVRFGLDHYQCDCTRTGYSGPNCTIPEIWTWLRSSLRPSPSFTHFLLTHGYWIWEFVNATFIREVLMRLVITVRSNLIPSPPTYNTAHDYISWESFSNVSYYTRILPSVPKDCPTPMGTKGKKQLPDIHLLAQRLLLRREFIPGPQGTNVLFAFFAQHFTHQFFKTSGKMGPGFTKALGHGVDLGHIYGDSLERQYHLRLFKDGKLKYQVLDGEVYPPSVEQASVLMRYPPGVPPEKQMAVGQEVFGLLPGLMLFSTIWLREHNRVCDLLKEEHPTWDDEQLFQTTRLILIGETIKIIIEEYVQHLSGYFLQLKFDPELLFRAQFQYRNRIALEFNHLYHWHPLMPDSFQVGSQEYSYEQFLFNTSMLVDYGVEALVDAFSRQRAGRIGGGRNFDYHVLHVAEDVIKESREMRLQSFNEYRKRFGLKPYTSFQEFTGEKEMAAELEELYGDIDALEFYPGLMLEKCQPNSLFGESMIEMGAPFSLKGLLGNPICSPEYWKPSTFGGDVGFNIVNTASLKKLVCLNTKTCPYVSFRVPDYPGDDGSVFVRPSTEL

[6] = biological target: D(1A) dopamine receptor (Homo sapiens, UniProt P21728); format: functional, cell-based
D(1A) dopamine receptor, sequence (P21728 whole entry): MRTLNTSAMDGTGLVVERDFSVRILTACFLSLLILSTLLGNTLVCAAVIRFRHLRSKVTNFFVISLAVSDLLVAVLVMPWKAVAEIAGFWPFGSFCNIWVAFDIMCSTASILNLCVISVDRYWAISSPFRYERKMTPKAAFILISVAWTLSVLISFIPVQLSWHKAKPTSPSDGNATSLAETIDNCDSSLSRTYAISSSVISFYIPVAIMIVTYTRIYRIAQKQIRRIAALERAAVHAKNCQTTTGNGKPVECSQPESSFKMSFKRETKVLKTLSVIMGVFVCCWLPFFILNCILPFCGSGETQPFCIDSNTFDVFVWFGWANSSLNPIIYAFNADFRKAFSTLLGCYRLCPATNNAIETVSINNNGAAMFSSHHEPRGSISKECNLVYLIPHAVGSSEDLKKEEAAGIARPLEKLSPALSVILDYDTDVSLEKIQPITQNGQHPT

[7] = biological target: T4, Adenosine receptor A1 (Homo sapiens, UniProt P30542)
T4 sequence (P30542 whole entry): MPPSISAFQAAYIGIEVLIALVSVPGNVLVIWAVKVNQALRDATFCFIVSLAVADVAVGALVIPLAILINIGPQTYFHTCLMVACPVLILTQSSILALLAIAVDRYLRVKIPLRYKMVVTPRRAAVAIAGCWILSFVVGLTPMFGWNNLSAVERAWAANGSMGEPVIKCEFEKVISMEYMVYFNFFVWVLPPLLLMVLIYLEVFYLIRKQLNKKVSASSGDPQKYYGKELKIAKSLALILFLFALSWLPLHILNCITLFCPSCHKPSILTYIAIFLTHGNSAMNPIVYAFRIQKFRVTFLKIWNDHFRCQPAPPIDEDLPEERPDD

[8] = biological target: T5, Alpha-1A adrenergic receptor (Homo sapiens, UniProt P35348); format: functional, cell-based
T5 sequence (P35348 whole entry): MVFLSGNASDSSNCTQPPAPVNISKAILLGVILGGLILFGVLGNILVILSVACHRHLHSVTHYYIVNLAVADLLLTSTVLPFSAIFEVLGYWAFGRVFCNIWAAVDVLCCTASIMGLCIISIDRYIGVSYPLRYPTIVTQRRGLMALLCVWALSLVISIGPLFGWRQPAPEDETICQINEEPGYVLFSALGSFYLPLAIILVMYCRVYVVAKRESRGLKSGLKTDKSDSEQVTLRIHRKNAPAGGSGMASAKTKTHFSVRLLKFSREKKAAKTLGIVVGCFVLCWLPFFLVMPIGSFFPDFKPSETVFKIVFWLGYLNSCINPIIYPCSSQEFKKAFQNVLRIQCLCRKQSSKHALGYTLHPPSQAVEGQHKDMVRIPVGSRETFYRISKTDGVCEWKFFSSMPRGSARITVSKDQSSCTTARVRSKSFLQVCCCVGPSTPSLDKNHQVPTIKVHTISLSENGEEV
Also: assay procedure not described here.

Prostaglandin G/H synthase 1 (Homo sapiens, UniProt P23219), sequence (P23219 whole entry): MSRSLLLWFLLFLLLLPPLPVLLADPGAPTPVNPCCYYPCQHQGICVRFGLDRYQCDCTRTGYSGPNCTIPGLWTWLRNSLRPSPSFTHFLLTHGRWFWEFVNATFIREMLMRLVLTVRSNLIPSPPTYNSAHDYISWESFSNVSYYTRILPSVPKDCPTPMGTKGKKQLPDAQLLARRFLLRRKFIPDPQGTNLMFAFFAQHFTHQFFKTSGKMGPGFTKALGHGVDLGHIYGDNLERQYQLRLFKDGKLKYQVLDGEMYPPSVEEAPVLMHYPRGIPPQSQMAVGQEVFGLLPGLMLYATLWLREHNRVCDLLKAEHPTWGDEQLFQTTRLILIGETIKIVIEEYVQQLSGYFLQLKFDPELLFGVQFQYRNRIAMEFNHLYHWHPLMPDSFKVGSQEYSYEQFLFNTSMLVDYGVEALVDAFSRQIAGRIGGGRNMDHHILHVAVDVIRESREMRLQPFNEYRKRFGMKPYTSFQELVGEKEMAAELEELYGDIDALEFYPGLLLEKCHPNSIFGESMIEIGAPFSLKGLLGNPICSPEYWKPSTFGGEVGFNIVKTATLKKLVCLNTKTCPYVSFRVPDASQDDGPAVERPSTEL
D(3) dopamine receptor, sequence (P35462 whole entry): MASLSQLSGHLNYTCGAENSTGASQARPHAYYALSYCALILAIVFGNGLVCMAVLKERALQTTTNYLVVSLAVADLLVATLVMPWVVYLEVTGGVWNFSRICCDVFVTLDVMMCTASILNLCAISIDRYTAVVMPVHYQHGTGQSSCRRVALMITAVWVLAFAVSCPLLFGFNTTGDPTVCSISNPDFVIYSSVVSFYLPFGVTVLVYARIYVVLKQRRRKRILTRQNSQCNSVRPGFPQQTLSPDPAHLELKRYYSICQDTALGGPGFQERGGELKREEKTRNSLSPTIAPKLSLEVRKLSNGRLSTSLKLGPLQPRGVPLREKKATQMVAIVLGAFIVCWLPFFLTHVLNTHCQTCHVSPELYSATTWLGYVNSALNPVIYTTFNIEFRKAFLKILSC

Row | Compound | AC50 [1] [µM] | AC50 [2] [µM] | AC50 [3] [µM] | AC50 [4] [µM] | AC50 [5] [µM] | AC50 [6] [µM] | AC50 [7] [µM] | AC50 [8] [µM]
1 | C[C@@H]1C[C@H]2[C@@H]3C[C@H](F)C4=CC(=O)C=C[C@]4(C)[C@@]3(F)[C@@H](O)C[C@]2(C)[C@@]1(OC(=O)c1ccco1)C(=O)SCF [FLUTICASONE FUROATE] | > 30 | 9.89 | > 30 | 0.13 | > 10 | > 10 | > 10 | > 30
2 | COC(=O)C[C@](O)(CCCC(C)(C)O)C(=O)O[C@@H]1C(OC)=C[C@]23CCCN2CCc2cc4c(cc2[C@H]13)OCO4 [OMACETAXINE MEPESUCCINATE] | – | > 30 | > 30 | > 30 | – | – | – | > 30
3 | COc1cccc(C(=O)CCN[C@@H](C)[C@H](O)c2ccccc2)c1 [OXYFEDRINE] | – | > 30 | > 30 | > 30 | – | – | – | 0.205
4 | C[C@@H]1C[C@H]2[C@@H]3C[C@H](F)C4=CC(=O)C=C[C@]4(C)[C@H]3[C@@H](O)C[C@]2(C)[C@@]1(O)C(=O)CO [PARAMETHASONE] | – | > 30 | > 30 | 3.48 | – | – | – | > 30
5 | CCCn1cnc2c1c(=O)n(CCCCC(C)=O)c(=O)n2C [PROPENTOFYLLINE] | – | > 30 | > 30 | > 30 | – | – | – | > 30
6 | COc1cc(C)c2c(Oc3cccc(C(F)(F)F)c3)c(OC)cc(NC(C)CCCN)c2n1 (configuration not stated) [TAFENOQUINE] | – | 3.81 | > 3 | > 30 | – | – | – | > 3
7 | CCCSc1nc(N[C@@H]2C[C@H]2c2ccc(F)c(F)c2)c2nnn([C@@H]3C[C@H](OCCO)[C@@H](O)[C@H]3O)c2n1 [TICAGRELOR] | – | 26.2 | 8.29 | > 30 | – | – | – | > 10
